Measurements reported in patent US8288426B2, “Pesticidal composition comprising fenamidone and an insecticide compound” (Bayer CropScience AG, priority 2006, dated 2012).

Key:
Format in all cases: in vivo
Details in all cases: mortality
Plutella xylostella = Plutella xylostella - test (cabbage leaf dip, larvae)
Method: (§1) To produce a suitable preparation of active compound, 1 part by weight of active compound is mixed with the stated amount of solvent and emulsifier, and the concentrate is diluted with emulsifier-containing water to the desired concentration.
Cabbage leaves (Brassica oleracea) are treated by being dipped into the preparation of the active compound of the desired concentration and are infested with larvae of the diamond back moth (Plutella xylostella) as long as the leaves are still moist.
(§2) After the specified period of time, the mortality in % is determined. 100% means that all the caterpillars have been killed; 0% means that none of the caterpillars have been killed.

Spodoptera frugiperda = Spodoptera frugiperda - test (cabbage leaf dip, larvae)
Method: as §1
Cabbage leaves (Brassica oleracea) are treated by being dipped into the preparation of the active compound of the desired concentration and are infested with larvae of the fall army worm (Spodoptera frugiperda) as long as the leaves are still moist.
as §2

Spodoptera exigua = Spodoptera exigua - test (cabbage leaf dip, larvae)
Method: as §1
Cabbage leaves (Brassica oleracea) are treated by being dipped into the preparation of the active compound of the desired concentration and are infested with larvae of the beet army worm (Spodoptera exigua) as long as the leaves are still moist.
as §2

CSC1=N[C@@](C)(c2ccccc2)C(=O)N1Nc1ccccc1 [Fenamidone, fenamidone]
Efficacy in % after 4d (Plutella xylostella; 200 ppm, first part of Table A): 35%
Efficacy in % after 4d (Plutella xylostella; 200 ppm, second part of Table A): 65%
Efficacy in % after 4d (Plutella xylostella; 500 ppm, first part of Table A): 75%
Efficacy in % after 4d (Spodoptera frugiperda; 200 ppm): 0%
Efficacy in % after 3d (Spodoptera exigua; 100 ppm): 0%
Efficacy in % after 3d (Spodoptera exigua; 200 ppm): 0%

O=[N+]([O-])NC1=NCCN1Cc1ccc(Cl)nc1 [Imidacloprid, imidacloprid]
Efficacy in % after 4d (Plutella xylostella; 20 ppm, first part of Table A): 5%
Efficacy in % after 3d (Spodoptera exigua; 20 ppm): 0%

CN1COCN(Cc2cnc(Cl)s2)/C1=N\[N+](=O)[O-] [Thiamethoxam, thiamethoxam]
Efficacy in % after 4d (Plutella xylostella; 4 ppm, first part of Table A): 0%

CN/C(=N\[N+](=O)[O-])NCc1cnc(Cl)s1 [Clothianidin, clothianidin]
Efficacy in % after 4d (Plutella xylostella; 4 ppm, second part of Table A): 0%
Efficacy in % after 4d (Spodoptera frugiperda; 4 ppm): 0%

N#C/N=C1\SCCN1Cc1ccc(Cl)nc1 [Thiacloprid, thiacloprid]
Efficacy in % after 3d (Spodoptera exigua; 100 ppm): 10%
